Patent publication US9775353B2, “Pesticidally active heterocyclic derivatives with sulphur containing substituents” (Syngenta Participations AG, priority 2014, dated 2017)

Experiments:
Type in all cases: in vivo
[1] = system: Spodoptera littoralis (Egyptian cotton leaf worm); experiment: Example B1: Activity against Spodoptera littoralis (larvicide, feeding/residual contact, preventive); settings: foliar, 72 h, cotton leaf discs sprayed, L1 larvae, mortality, repellent effect, feeding behaviour, growth regulation 3 days after treatment
Description: Example B1: Activity Against Spodoptera littoralis (Egyptian Cotton Leaf Worm) (Larvicide, Feeding/Residual Contact Activity, Preventive) Cotton leaf discs were placed on agar in a 24-well microtiter plate and sprayed with test solutions. After drying, the leaf discs were infested with 5 L1 larvae. The samples were checked for mortality, repellent effect, feeding behaviour, and growth regulation 3 days after treatment (DAT).

[2] = system: Plutella xylostella (diamond back moth); experiment: Example B2: Activity against Plutella xylostella (larvicide, feeding/residual contact, preventive); settings: 120 h, artificial diet, L2 larvae, larval mortality, antifeedant, growth regulation after 5 days
Description: Example B2: Activity Against Plutella xylostella (Diamond Back Moth) (Larvicide, Feeding/Residual Contact Activity, Preventive) 24-well microtiter plate (MTP) with artificial diet was treated with test solutions by pipetting. After drying, the MTPs were infested with L2 larvae (10-15 per well). After an incubation period of 5 days, samples were checked for larval mortality, antifeedant and growth regulation.

[3] = system: Diabrotica balteata (corn root worm); experiment: Example B3: Activity against Diabrotica balteata (larvae L2 on maize sprouts, feeding/contact, preventative); settings: 120 h, maize sprouts sprayed, larval mortality and growth regulation after 5 days
Description: Example B3: Activity Against Diabrotica balteata (Corn Root Worm) (Larvae L2 on Maize Sprouts, Feeding/Contact, Preventative) Maize sprouts, placed on an agar layer in 24 well micro titer plates were treated with test solutions by spraying. After drying, the MTPs were infested with L2 larvae (6-10 per well). After an incubation period of 5 days, samples were checked for larval mortality and growth regulation.

[4] = system: Bemisia tabaci (cotton white fly); experiment: Example B5: Activity against Bemisia tabaci (adulticide contact activity, preventative); settings: foliar, 168 h, cotton leaf discs sprayed, adult white flies, mortality 7 DAT
Description: Example B5: Activity Against Bemisia tabaci (Cotton White Fly) (Adulticide Contact Activity, Preventative), Adult Cotton leaf discs were placed on agar in a 24-well microtiter plate and sprayed with test solutions. After drying, the leaf discs were infested with adult white flies. After an incubation period of 7 DAT, samples were checked for mortality and special effects (e.g. phytotoxicity).

[5] = system: Spodoptera littoralis (Egyptian cotton leaf worm); experiment: Example B7: Activity against Spodoptera littoralis (systemic activity); settings: 120 h, systemic via lettuce roots in agar, mortality, repellent effect, feeding behavior, growth regulation 5 days after infestation
Description: Example B7: Activity Against Spodoptera littoralis (Egyptian Cotton Leaf Worm) (Systemic Activity) Test compounds were applied by pipette into 24 well plates and mixed with agar. Lettuce seeds were placed on the agar and the multi well plate is closed by another plate which contains also agar. After 7 days the roots have absorbed the compound and the lettuce has grown into the lid plate. The lettuce leaves were now cut off into the lid plate. Spodoptera eggs were pipetted through a plastic stencil on a humid gel blotting paper and the plate closed with it. The samples are checked for mortality, repellent effect, feeding behavior, and growth regulation 5 days after infestation.

[6] = system: Myzus persicae (green peach aphid); experiment: Example B8: Activity against Myzus persicae (feeding/residual contact, preventive, mixed population); settings: foliar, 144 h, sunflower leaf discs sprayed, mixed ages, mortality 6 DAT
Description: Example B8: Activity Against Myzus persicae (Green Peach Aphid) (Feeding/Residual Contact Activity, Preventive), Mixed Population Sunflower leaf discs were placed on agar in a 24-well microtiter plate and sprayed with test solutions. After drying, the leaf discs were infested with an aphid population of mixed ages. After an incubation period of 6 DAT, samples were checked for mortality and special effects (e.g. phytotoxicity).

[7] = system: Euschistus heros (neotropical brown stink bug); experiment: Example B10: Activity against Euschistus heros; settings: 120 h, soybean leaf sprayed, N-2 nymphs, mortality 5 days after infestation
Description: Example B10: Activity Against Euschistus heros (Neotropical Brown Stink Bug) Soybean leaf on agar in 24-well microtiter plates were sprayed with aqueous test solutions prepared from 10,000 ppm DMSO stock solutions. After drying the leaf were infested with N-2 nymphs. The samples were assessed for mortality 5 days after infestation.

CCS(=O)(=O)c1cc(-c2ccc(Cl)cc2)cnc1-c1nc2cc(C(F)(F)F)ncc2n1C [Compound P1, 2-[5-(4-chlorophenyl)-3-ethylsulfonyl-2-pyridyl]-3-methyl-6-(trifluoromethyl)imidazo[4,5-c]pyridine]
> 80%: pest or weed control at 400 ppm [1] | pest or weed control at 400 ppm [2] | pest or weed control at 400 ppm [3] | pest or weed control at 400 ppm [4] | pest or weed control at 400 ppm [6] | pest or weed control at 400 ppm [7]
≥ 80%: pest or weed control at 12.5 ppm [5]

CCS(=O)(=O)c1cc(-c2ccc(C(F)(F)F)cc2)cnc1-c1nc2cc(C(F)(F)F)ncc2n1C [Compound P2]
> 80%: pest or weed control at 400 ppm [1] | pest or weed control at 400 ppm [2] | pest or weed control at 400 ppm [3] | pest or weed control at 400 ppm [4] | pest or weed control at 400 ppm [6] | pest or weed control at 400 ppm [7]
≥ 80%: pest or weed control at 12.5 ppm [5]

CCS(=O)(=O)c1cc(-c2cccc(C(F)(F)F)c2)cnc1-c1nc2cc(C(F)(F)F)ncc2n1C [Compound P3]
> 80%: pest or weed control at 400 ppm [1] | pest or weed control at 400 ppm [2] | pest or weed control at 400 ppm [3] | pest or weed control at 400 ppm [4] | pest or weed control at 400 ppm [6] | pest or weed control at 400 ppm [7]
≥ 80%: pest or weed control at 12.5 ppm [5]

CCS(=O)(=O)c1cc(-c2cccc(Cl)c2)cnc1-c1nc2cc(C(F)(F)F)ncc2n1C [Compound P5]
≥ 80%: pest or weed control at 12.5 ppm [5]
> 80%: pest or weed control at 400 ppm [1] | pest or weed control at 400 ppm [2] | pest or weed control at 400 ppm [3] | pest or weed control at 400 ppm [4] | pest or weed control at 400 ppm [6] | pest or weed control at 400 ppm [7]

CCS(=O)(=O)c1cc(-c2ccc(Cl)c(Cl)c2)cnc1-c1nc2cc(C(F)(F)F)ncc2n1C [Compound P6]
> 80%: pest or weed control at 400 ppm [1] | pest or weed control at 400 ppm [2] | pest or weed control at 400 ppm [3] | pest or weed control at 400 ppm [6] | pest or weed control at 400 ppm [7]
≥ 80%: pest or weed control at 12.5 ppm [5]

CCS(=O)(=O)c1cc(-c2ccc(Cl)cc2Cl)cnc1-c1nc2cc(C(F)(F)F)ncc2n1C [Compound P8]
> 80%: pest or weed control at 400 ppm [1] | pest or weed control at 400 ppm [2] | pest or weed control at 400 ppm [3] | pest or weed control at 400 ppm [4] | pest or weed control at 400 ppm [6]

CCS(=O)(=O)c1cc(-c2ccc(OC)c(F)c2)cnc1-c1nc2cc(C(F)(F)F)ncc2n1C [Compound P9]
> 80%: pest or weed control at 400 ppm [1] | pest or weed control at 400 ppm [2] | pest or weed control at 400 ppm [3] | pest or weed control at 400 ppm [6]

CCS(=O)(=O)c1cc(-c2cc(C)c(OC)c(C)c2)cnc1-c1nc2cc(C(F)(F)F)ncc2n1C [Compound P10]
> 80%: pest or weed control at 400 ppm [2] | pest or weed control at 400 ppm [3]

CCS(=O)(=O)c1cc(-c2cc(F)ccc2F)cnc1-c1nc2cc(C(F)(F)F)ncc2n1C [Compound P11]
> 80%: pest or weed control at 400 ppm [1] | pest or weed control at 400 ppm [2] | pest or weed control at 400 ppm [3] | pest or weed control at 400 ppm [6] | pest or weed control at 400 ppm [7]

CCS(=O)(=O)c1cc(-c2ccccc2Cl)cnc1-c1nc2cc(C(F)(F)F)ncc2n1C [Compound P12]
> 80%: pest or weed control at 400 ppm [1] | pest or weed control at 400 ppm [2] | pest or weed control at 400 ppm [3] | pest or weed control at 400 ppm [6] | pest or weed control at 400 ppm [7]

CCS(=O)(=O)c1cc(-c2ccc(Cl)cc2C)cnc1-c1nc2cc(C(F)(F)F)ncc2n1C [Compound P14, 2-[5-(4-chloro-2-methyl-phenyl)-3-ethylsulfonyl-2-pyridyl]-3-methyl-6-(trifluoromethyl)imidazo[4,5-c]pyridine]
> 80%: pest or weed control at 400 ppm [1] | pest or weed control at 400 ppm [2] | pest or weed control at 400 ppm [3] | pest or weed control at 400 ppm [6] | pest or weed control at 400 ppm [7]

CCSc1cc(-c2ccc(Cl)cc2)cnc1-c1nc2cc(C(F)(F)F)ncc2n1C [Compound P15, 2-[5-(4-chlorophenyl)-3-ethylsulfanyl-2-pyridyl]-3-methyl-6-(trifluoromethyl)imidazo[4,5-c]pyridine]
> 80%: pest or weed control at 400 ppm [1] | pest or weed control at 400 ppm [2] | pest or weed control at 400 ppm [3] | pest or weed control at 400 ppm [7]

CCS(=O)(=O)c1cc(-c2cccc(-c3nnc(C)o3)c2)cnc1-c1nc2cc(C(F)(F)F)ncc2n1C [Compound P20]
> 80%: pest or weed control at 400 ppm [1] | pest or weed control at 400 ppm [2] | pest or weed control at 400 ppm [4] | pest or weed control at 400 ppm [6]

CCS(=O)(=O)c1cc(-c2ccc(Cl)cc2)ccc1-c1nc2cc(C(F)(F)F)ncc2n1C [Compound P22]
> 80%: pest or weed control at 400 ppm [1] | pest or weed control at 400 ppm [2] | pest or weed control at 400 ppm [3] | pest or weed control at 400 ppm [4] | pest or weed control at 400 ppm [7]
≥ 80%: pest or weed control at 12.5 ppm [5]

CCS(=O)(=O)c1cc(-c2cccc(-c3nnco3)c2)cnc1-c1nc2cc(C(F)(F)F)ncc2n1C [Compound P23]
> 80%: pest or weed control at 400 ppm [1] | pest or weed control at 400 ppm [2] | pest or weed control at 400 ppm [3] | pest or weed control at 400 ppm [6] | pest or weed control at 400 ppm [7]
≥ 80%: pest or weed control at 12.5 ppm [5]

CCS(=O)(=O)c1cc(-c2ccc([Si](C)(C)C)cc2)cnc1-c1nc2cc(C(F)(F)F)ncc2n1C [Compound P26]
> 80%: pest or weed control at 400 ppm [2] | pest or weed control at 400 ppm [3]

CCS(=O)(=O)c1cc(-c2ccc(C(F)(F)F)cc2)ccc1-c1nc2cc(C(F)(F)F)ncc2n1C [Compound P27]
> 80%: pest or weed control at 400 ppm [1] | pest or weed control at 400 ppm [2] | pest or weed control at 400 ppm [3] | pest or weed control at 400 ppm [4] | pest or weed control at 400 ppm [7]
≥ 80%: pest or weed control at 12.5 ppm [5]

CCS(=O)(=O)c1cc(-c2ccccc2SC)cnc1-c1nc2cc(C(F)(F)F)ncc2n1C [Compound P28]
> 80%: pest or weed control at 400 ppm [2] | pest or weed control at 400 ppm [3] | pest or weed control at 400 ppm [6]

CCS(=O)(=O)c1cc(-c2cccc(CC#N)c2)cnc1-c1nc2cc(C(F)(F)F)ncc2n1C [Compound P29]
> 80%: pest or weed control at 400 ppm [6]

CCS(=O)(=O)c1cc(-c2ccccc2OCCSC)cnc1-c1nc2cc(C(F)(F)F)ncc2n1C [Compound P30]
> 80%: pest or weed control at 400 ppm [1]

CCS(=O)(=O)c1cc(-c2ccc(CC#N)cc2)cnc1-c1nc2cc(C(F)(F)F)ncc2n1C [Compound P31]
> 80%: pest or weed control at 400 ppm [2] | pest or weed control at 400 ppm [6]

CCSc1ccc(-c2cnc(-c3nc4cc(C(F)(F)F)ncc4n3C)c(S(=O)(=O)CC)c2)cc1 [Compound P32]
> 80%: pest or weed control at 400 ppm [1] | pest or weed control at 400 ppm [2] | pest or weed control at 400 ppm [3] | pest or weed control at 400 ppm [6] | pest or weed control at 400 ppm [7]

CCSc1cc(-c2ccc(C(F)(F)F)cc2)ccc1-c1nc2cc(C(F)(F)F)ncc2n1C [Compound P33]
> 80%: pest or weed control at 400 ppm [3] | pest or weed control at 400 ppm [7]

CCS(=O)(=O)c1cc(-c2cc(F)c(F)cc2F)cnc1-c1nc2cc(C(F)(F)F)ncc2n1C [Compound P35]
> 80%: pest or weed control at 400 ppm [1] | pest or weed control at 400 ppm [2] | pest or weed control at 400 ppm [3] | pest or weed control at 400 ppm [7]
≥ 80%: pest or weed control at 12.5 ppm [5]

CCS(=O)(=O)c1cc(-c2ccc(-n3cccn3)cc2)cnc1-c1nc2cc(C(F)(F)F)ncc2n1C [Compound P37]
> 80%: pest or weed control at 400 ppm [1] | pest or weed control at 400 ppm [2] | pest or weed control at 400 ppm [3] | pest or weed control at 400 ppm [6] | pest or weed control at 400 ppm [7]

CCc1ccccc1-c1cnc(-c2nc3cc(C(F)(F)F)ncc3n2C)c(S(=O)(=O)CC)c1 [Compound P38]
> 80%: pest or weed control at 400 ppm [2] | pest or weed control at 400 ppm [3]
